pEC50: −log10 of the molar value.
How the values were obtained:
[1] = target: T1, GPR41 (Mus musculus, UniProt Q3UFD7); assay: inhibition of forskolin-induced cAMP in doxycycline-inducible mouse GPR41 HEK293 cells; assay type: cell-based
T1 construct: gene Ffar3; mouse GPR41 cDNA in pcDNA5/FRT/TO, expressed in Flp-In T-Rex HEK 293 cells
T1 sequence (Q3UFD7 1-319): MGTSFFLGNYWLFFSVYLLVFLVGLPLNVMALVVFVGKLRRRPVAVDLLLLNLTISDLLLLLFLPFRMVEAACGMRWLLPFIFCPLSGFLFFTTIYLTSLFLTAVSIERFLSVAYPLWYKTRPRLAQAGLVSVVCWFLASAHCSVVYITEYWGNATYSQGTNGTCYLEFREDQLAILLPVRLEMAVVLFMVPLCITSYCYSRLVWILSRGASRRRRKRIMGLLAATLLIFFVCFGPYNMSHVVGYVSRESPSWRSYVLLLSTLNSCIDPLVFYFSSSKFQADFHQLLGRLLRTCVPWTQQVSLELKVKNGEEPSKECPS

[2] = target: T1, GPR41; assay: inhibition of forskolin-induced cAMP in doxycycline-inducible mouse GPR41 HEK293 cells; Dox(-) controls inactive; assay type: cell-based

pEC50 [1]	pEC50 [2]	Compound
2.25		COc1cc(/C=C/C(=O)O)ccc1O [HMCA, 4-hydroxy-3-methoxycinnamic acid]
	2.63	COc1cc(CCC(=O)O)ccc1O [HMPA, 3-(4-hydroxy-3-methoxyphenyl) propionic acid]
